What was measured:
Experiment in all cases: biochemical
Format in all cases: binding
[1] = biological target: 468 kinases including some pathogenic mutants (Homo sapiens, UniProt Q9UIK4); conditions: DAPK2 (Entrez DAPK2), 100 nM; read-out: Percent Control
[2] = biological target: 468 kinases including some pathogenic mutants (Homo sapiens, UniProt Q96PY6); conditions: NEK1 (Entrez NEK1), 1000 nM; read-out: Percent Control
[3] = biological target: 468 kinases including some pathogenic mutants (Homo sapiens, UniProt P54760); conditions: EPHB4 (Entrez EPHB4), 100 nM; read-out: Percent Control
[4] = biological target: 468 kinases including some pathogenic mutants (Homo sapiens, UniProt O75385); conditions: ULK1 (Entrez ULK1), 1000 nM; read-out: Percent Control
[5] = biological target: 468 kinases including some pathogenic mutants (Homo sapiens, UniProt Q8TD19); conditions: NEK9 (Entrez NEK9), 100 nM; read-out: Percent Control
[6] = biological target: 468 kinases including some pathogenic mutants (Homo sapiens, UniProt P80192); conditions: MLK1 (Entrez MAP3K9), 1000 nM; read-out: Percent Control
468 kinases including some pathogenic mutants (Homo sapiens, UniProt P80192), sequence (P80192 whole entry, change not shown): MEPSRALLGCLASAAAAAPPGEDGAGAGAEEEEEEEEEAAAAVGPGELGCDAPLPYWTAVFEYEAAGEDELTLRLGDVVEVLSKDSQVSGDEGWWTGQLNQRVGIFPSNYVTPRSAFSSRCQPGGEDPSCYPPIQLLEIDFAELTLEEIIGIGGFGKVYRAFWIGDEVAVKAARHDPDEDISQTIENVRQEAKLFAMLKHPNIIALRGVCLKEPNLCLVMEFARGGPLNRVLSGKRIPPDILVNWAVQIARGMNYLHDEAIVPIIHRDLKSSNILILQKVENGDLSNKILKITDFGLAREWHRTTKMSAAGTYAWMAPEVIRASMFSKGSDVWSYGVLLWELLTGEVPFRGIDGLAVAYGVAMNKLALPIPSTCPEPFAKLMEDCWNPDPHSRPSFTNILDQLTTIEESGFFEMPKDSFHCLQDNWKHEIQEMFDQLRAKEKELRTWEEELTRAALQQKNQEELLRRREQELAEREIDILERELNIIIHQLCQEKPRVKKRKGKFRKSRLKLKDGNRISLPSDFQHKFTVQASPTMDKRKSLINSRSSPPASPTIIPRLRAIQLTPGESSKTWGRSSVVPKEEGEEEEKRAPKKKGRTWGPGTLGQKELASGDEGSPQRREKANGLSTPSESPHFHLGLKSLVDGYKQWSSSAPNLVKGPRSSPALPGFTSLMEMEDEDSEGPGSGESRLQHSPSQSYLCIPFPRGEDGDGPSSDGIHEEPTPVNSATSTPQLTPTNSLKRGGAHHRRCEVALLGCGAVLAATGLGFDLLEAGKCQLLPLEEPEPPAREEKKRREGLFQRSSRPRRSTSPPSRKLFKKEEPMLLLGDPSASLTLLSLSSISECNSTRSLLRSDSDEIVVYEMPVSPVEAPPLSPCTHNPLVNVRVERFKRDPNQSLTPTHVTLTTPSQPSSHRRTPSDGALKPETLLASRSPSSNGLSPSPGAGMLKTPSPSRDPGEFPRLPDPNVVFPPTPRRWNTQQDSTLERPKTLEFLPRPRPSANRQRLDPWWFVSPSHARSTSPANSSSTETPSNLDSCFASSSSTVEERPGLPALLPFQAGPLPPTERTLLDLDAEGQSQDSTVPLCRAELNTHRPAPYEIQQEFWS

[7] = biological target: 468 kinases including some pathogenic mutants (Homo sapiens, UniProt Q8TDC3); conditions: BRSK1 (Entrez BRSK1), 100 nM; read-out: Percent Control
[8] = biological target: 468 kinases including some pathogenic mutants (Homo sapiens, UniProt Q9BYP7); conditions: WNK3 (Entrez WNK3), 100 nM; read-out: Percent Control
[9] = biological target: 468 kinases including some pathogenic mutants (Homo sapiens, UniProt P16234); conditions: PDGFRA (Entrez PDGFRA), 100 nM; read-out: Percent Control
468 kinases including some pathogenic mutants (Homo sapiens, UniProt P16234), sequence (P16234 24-1089, stated change not applied): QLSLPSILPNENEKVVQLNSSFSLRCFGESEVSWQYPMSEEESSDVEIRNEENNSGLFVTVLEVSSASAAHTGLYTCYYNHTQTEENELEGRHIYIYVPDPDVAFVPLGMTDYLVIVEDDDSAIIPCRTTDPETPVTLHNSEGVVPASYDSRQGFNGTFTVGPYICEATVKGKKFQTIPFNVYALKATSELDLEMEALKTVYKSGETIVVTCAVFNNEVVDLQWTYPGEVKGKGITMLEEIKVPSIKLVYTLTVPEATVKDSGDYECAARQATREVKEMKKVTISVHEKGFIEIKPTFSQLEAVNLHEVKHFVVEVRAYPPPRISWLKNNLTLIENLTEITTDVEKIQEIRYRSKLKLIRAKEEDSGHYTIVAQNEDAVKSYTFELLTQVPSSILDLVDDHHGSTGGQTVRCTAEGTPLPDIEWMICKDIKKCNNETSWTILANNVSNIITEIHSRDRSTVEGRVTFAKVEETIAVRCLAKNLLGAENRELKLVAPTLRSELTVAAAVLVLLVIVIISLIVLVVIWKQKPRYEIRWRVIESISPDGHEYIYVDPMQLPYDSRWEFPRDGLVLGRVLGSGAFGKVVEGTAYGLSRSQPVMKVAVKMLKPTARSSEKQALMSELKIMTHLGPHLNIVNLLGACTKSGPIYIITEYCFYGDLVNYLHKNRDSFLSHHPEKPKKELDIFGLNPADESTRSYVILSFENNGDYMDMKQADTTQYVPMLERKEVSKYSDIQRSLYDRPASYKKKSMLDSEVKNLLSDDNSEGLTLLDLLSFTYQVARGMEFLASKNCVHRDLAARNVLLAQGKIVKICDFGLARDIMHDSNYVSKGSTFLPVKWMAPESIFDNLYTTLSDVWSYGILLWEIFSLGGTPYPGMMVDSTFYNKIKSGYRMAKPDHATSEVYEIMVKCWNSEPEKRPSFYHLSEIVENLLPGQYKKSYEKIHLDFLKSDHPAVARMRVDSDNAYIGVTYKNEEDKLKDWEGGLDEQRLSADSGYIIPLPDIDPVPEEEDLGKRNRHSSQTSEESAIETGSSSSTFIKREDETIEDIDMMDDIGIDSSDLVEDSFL

[10] = biological target: 468 kinases including some pathogenic mutants (Homo sapiens, UniProt P00533, DEL752-759); conditions: read-out: Percent Control
[11] = biological target: 468 kinases including some pathogenic mutants (Homo sapiens, UniProt Q12852); conditions: DLK (Entrez MAP3K12), 100 nM; read-out: Percent Control
468 kinases including some pathogenic mutants (Homo sapiens, UniProt Q12852), sequence (Q12852 whole entry, change not shown): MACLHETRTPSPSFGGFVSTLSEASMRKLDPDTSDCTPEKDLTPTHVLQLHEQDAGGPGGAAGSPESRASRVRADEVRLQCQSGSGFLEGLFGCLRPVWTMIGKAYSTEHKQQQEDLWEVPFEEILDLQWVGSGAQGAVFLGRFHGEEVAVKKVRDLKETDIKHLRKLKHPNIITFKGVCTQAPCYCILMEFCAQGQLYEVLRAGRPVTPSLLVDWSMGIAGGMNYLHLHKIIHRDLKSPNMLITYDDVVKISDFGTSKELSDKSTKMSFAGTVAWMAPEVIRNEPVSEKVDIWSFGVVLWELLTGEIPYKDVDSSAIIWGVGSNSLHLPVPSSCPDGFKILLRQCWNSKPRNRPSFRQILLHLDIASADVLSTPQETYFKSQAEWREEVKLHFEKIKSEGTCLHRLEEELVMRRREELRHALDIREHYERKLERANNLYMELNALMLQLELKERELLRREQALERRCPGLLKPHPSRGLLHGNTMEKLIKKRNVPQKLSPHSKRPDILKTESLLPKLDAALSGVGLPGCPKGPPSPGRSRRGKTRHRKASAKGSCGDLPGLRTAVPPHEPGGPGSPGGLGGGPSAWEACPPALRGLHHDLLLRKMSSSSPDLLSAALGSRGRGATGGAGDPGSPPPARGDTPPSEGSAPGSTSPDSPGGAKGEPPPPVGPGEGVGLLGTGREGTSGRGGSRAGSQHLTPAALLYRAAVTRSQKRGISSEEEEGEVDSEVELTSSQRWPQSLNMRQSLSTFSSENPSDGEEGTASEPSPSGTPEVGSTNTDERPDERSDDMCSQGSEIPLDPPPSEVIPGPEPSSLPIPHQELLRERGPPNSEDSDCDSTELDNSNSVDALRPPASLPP

[12] = biological target: 468 kinases including some pathogenic mutants (Homo sapiens, UniProt Q8TBX8); conditions: PIP5K2C (Entrez PIP4K2C), 100 nM; read-out: Percent Control
[13] = biological target: 468 kinases including some pathogenic mutants (Homo sapiens, UniProt O43293); conditions: DAPK3 (Entrez DAPK3), 100 nM; read-out: Percent Control
468 kinases including some pathogenic mutants (Homo sapiens, UniProt O43293), sequence (O43293 whole entry, change not shown): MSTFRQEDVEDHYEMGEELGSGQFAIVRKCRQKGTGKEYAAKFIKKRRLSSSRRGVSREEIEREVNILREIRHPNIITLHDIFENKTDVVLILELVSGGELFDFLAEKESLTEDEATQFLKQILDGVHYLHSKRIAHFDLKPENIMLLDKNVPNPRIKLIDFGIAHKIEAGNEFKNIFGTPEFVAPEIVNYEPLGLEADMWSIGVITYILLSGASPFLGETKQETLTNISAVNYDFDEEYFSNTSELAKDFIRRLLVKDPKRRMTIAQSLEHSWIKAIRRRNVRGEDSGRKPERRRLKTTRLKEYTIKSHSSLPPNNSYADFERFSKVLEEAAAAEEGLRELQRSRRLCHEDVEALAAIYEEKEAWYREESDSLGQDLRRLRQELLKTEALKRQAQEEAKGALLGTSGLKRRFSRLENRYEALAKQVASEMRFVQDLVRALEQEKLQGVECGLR

[14] = biological target: 468 kinases including some pathogenic mutants (Homo sapiens, UniProt Q16539); conditions: p38-alpha (Entrez MAPK14), 1000 nM; read-out: Percent Control
[15] = biological target: 468 kinases including some pathogenic mutants (Homo sapiens, UniProt Q9BUB5); conditions: MKNK1 (Entrez MKNK1), 100 nM; read-out: Percent Control
[16] = biological target: 468 kinases including some pathogenic mutants (Homo sapiens, UniProt P0C264); conditions: SgK110 (Entrez SgK110), 1000 nM; read-out: Percent Control
[17] = biological target: 468 kinases including some pathogenic mutants (Homo sapiens, UniProt Q16620); conditions: TRKB (Entrez NTRK2), 100 nM; read-out: Percent Control
[18] = biological target: 468 kinases including some pathogenic mutants (Homo sapiens, UniProt Q6XUX3); conditions: RIPK5 (Entrez DSTYK), 1000 nM; read-out: Percent Control
[19] = biological target: 468 kinases including some pathogenic mutants (Homo sapiens, UniProt Q13233); conditions: MAP3K1 (Entrez MAP3K1), 1000 nM; read-out: Percent Control
[20] = biological target: 468 kinases including some pathogenic mutants (Homo sapiens, UniProt P04049); conditions: RAF1 (Entrez RAF1), 1000 nM; read-out: Percent Control
[21] = biological target: 468 kinases including some pathogenic mutants (Homo sapiens, UniProt O00141); conditions: SGK (Entrez SGK1), 1000 nM; read-out: Percent Control
[22] = biological target: 468 kinases including some pathogenic mutants (Homo sapiens, UniProt Q8IVH8); conditions: MAP4K3 (Entrez MAP4K3), 100 nM; read-out: Percent Control
[23] = biological target: 468 kinases including some pathogenic mutants (Homo sapiens, UniProt Q9UEW8); conditions: STK39 (Entrez STK39), 100 nM; read-out: Percent Control
[24] = biological target: 468 kinases including some pathogenic mutants (Homo sapiens, UniProt Q59H18); conditions: TNNI3K (Entrez TNNI3K), 100 nM; read-out: Percent Control
[25] = biological target: 468 kinases including some pathogenic mutants (Homo sapiens, UniProt Q9HBY8); conditions: SGK2 (Entrez SGK2), 100 nM; read-out: Percent Control
468 kinases including some pathogenic mutants (Homo sapiens, UniProt Q9HBY8), sequence (Q9HBY8 whole entry, change not shown): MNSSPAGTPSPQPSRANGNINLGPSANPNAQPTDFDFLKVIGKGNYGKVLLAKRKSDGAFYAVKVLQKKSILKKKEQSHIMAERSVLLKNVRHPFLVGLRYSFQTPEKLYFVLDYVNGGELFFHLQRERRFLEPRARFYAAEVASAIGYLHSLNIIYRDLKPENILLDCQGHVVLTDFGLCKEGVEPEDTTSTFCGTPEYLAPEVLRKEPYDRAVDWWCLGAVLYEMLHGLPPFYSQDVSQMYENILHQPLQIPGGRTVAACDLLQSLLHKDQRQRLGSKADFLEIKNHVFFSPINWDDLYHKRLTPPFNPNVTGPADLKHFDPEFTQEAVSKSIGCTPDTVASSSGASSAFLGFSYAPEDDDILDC

[26] = biological target: 468 kinases including some pathogenic mutants (Homo sapiens, UniProt Q15759); conditions: p38-beta (Entrez MAPK11), 100 nM; read-out: Percent Control
[27] = biological target: 468 kinases including some pathogenic mutants (Homo sapiens, UniProt Q9UKI8); conditions: TLK1 (Entrez TLK1), 1000 nM; read-out: Percent Control
468 kinases including some pathogenic mutants (Homo sapiens, UniProt Q9UKI8), sequence (Q9UKI8 whole entry, change not shown): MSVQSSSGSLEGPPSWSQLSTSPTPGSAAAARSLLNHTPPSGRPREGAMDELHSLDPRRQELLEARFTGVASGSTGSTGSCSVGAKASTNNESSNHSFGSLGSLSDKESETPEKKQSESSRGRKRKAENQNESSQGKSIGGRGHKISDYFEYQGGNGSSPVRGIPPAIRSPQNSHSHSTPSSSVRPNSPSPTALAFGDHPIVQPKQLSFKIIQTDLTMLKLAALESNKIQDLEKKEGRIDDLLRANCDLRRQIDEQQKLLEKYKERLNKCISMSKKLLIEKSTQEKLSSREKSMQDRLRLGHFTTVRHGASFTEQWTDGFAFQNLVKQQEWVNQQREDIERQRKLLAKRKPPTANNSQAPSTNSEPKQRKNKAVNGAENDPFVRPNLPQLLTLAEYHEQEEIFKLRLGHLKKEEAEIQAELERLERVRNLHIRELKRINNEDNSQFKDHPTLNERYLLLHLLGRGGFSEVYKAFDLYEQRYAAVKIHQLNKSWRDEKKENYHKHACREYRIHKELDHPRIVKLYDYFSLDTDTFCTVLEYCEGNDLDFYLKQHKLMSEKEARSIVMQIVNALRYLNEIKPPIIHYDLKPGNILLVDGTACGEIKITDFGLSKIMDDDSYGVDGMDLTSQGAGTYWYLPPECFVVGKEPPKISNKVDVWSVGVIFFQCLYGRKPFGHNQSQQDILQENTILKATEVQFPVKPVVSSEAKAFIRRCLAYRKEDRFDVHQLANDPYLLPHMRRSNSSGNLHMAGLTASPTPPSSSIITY

[28] = biological target: 468 kinases including some pathogenic mutants (Homo sapiens, UniProt Q16584); conditions: MLK3 (Entrez MAP3K11), 100 nM; read-out: Percent Control

468 kinases including some pathogenic mutants (Homo sapiens, UniProt Q9UIK4), sequence (Q9UIK4 whole entry, change not shown): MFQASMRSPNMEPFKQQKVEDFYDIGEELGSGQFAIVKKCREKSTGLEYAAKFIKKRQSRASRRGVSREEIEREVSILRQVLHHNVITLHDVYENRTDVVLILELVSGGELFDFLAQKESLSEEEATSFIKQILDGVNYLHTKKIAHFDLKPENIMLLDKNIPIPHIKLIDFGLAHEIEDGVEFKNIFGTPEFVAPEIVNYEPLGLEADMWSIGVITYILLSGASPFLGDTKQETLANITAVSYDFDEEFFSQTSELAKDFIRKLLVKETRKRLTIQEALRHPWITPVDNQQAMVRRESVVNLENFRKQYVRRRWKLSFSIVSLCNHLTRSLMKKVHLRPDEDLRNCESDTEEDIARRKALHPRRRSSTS

With `CN1C(=O)[C@@H](N2CCc3c(nn(Cc4ccccc4)c3C(N)=O)C2=O)COc2cc(Cl)ccc21` [Compound 10, (S)-2-benzyl-6-(8-chloro-5-methyl-4-oxo-2,3,4,5-tetrahydrobenzo[b][1,4]oxazepin-3-yl)-7-oxo-4,5,6,7-tetrahydro-2H-pyrazolo[3,4-c]pyridine-3-carboxamide] the remaining activity at 0.1 µM [1] was 70%, the remaining activity at 1 µM [2] was 100% and the remaining activity at 0.1 µM [3] was 72%. It also gave a remaining activity at 1 µM [4] of 100%, a remaining activity at 0.1 µM [5] of 88% and a remaining activity at 1 µM [6] of 100%. It also gave a remaining activity at 0.1 µM [7] of 91%, a remaining activity at 0.1 µM [8] of 73% and a remaining activity at 0.1 µM [9] of 89%. The remaining activity at 0.1 µM [10] was 100%, the remaining activity at 0.1 µM [11] was 72% and the remaining activity at 0.1 µM [12] was 91%. For the same compound, the remaining activity at 0.1 µM [13] was 79%, the remaining activity at 1 µM [14] was 100% and the remaining activity at 0.1 µM [15] was 85%. The remaining activity at 1 µM [16] was 100%, the remaining activity at 0.1 µM [17] was 88% and the remaining activity at 1 µM [18] was 100%. The remaining activity at 1 µM [19] was 100%, the remaining activity at 1 µM [20] was 100% and the remaining activity at 1 µM [21] was 100%. It also gave a remaining activity at 0.1 µM [22] of 83%, a remaining activity at 0.1 µM [23] of 67% and a remaining activity at 0.1 µM [24] of 82%. The remaining activity at 0.1 µM [25] was 75%, the remaining activity at 0.1 µM [26] was 100% and the remaining activity at 1 µM [27] was 100%. For the same compound, the remaining activity at 0.1 µM [28] was 100%.

Reference: PMC12090182, “Repurposing of the RIPK1-Selective Benzo[1,4]oxazepin-4-one Scaffold for the Development of a Type III LIMK1/2 Inhibitor” (ACS Chemical Biology, 2025)
